Laboratory results as given in patent publication US9938240B2, “Fluorinated derivatives of 3-hydroxypyridin-4-ones” (Apotex Technologies Inc., priority 2009, dated 2018).

Legend:
[1] = pKa determination by potentiometric titration; type: physicochemical
Description: The pKa values of ligands were determined by potentiometric titration when a ligand concentration >1×10^−2 M in water could be prepared. In a typical experiment, the sample solution (1.00×10^−2 M) was prepared by the following method: Apo7041 (125.4 mg) was weighed into a 50 mL volumetric flask, and about 40 mL of 0.1 M NaCl was added. The mixture was sonicated for 10 min to give a clear colorless solution. More of the 0.1 M NaCl was added to volume and the resulting solution was vortexed to mix. 40 mL of the solution was transferred into a T70 titration cell by using a 10 mL digital pipet A 6.000 N sodium hydroxide solution (127 μL, 1.9 equiv) was added, and the pH (11.82) of the solution was recorded. The solution was allowed to equilibrate at 22° C. for 5 min.
The solution was then titrated against a 6.000 N hydrochloric acid solution at 22° C. by using a Mettler Toledo T70 autotitrator, until the pH reached 1.5. The volume of acid added and the pH reading were recorded. Thus, 501 measurements were taken for this experiment.
The data set of pH vs. acid volume was analyzed using Hyperquad 2000 software (version 2.1, Peter Gans, University of Leeds). The pKa values were obtained using the model: L^−+H^+⇄LH (pKa1), LH+H^+⇄LH2^+, and LH2^++H^+⇄LH3^2+ (pKa3).
The pKa values of Apo7041 in the same mixed solvent were also determined by potentiometric titration using the procedure described in Example 1.

[2] = Stepwise formation constants for Cu-ligand system by potentiometric titration; type: physicochemical; settings: for pCu^2+: pH 7.4, ligand 10 μM, metal 1 μM
Description: In a typical experiment, the sample solution was prepared by the following method: Apo7041 (126.1 mg, 0.50 mmol) was weighed into a 50 mL volumetric flask, and about 35 mL of a mixed solvent (0.1 M NaCl aqueous:MeOH, 1:1, v:v) was added. The mixture was sonicated for 10 min to give a clear colorless solution. The copper stock solution (atomic absorption standard, Aldrich, 6.33 mL, 0.10 mmol) was pipetted into the solution. More of the mixed solvent was added to volume and the resulting solution was vortexed to mix. The molar ratio between the total copper and the total Apo7041 was 1/5. 40 mL of the solution was transferred into a T70 titration cell by using a 10 mL digital pipet. A 6.000 N sodium hydroxide solution (300 μL) was added, and the pH (12.17) of the solution was recorded. The solution was allowed to equilibrate at 22° C. for 5 min.
The solution was then titrated against a 6.000 N hydrochloric acid solution at 22° C. by using a Mettler Toledo T70 autotitrator, until the pH reached 1.5. The volume of acid added and the pH reading were recorded. Thus, 533 measurements were taken for this experiment.
The data set of pH vs. acid volume for Cu-Apo7041 system was analyzed using Hyperquad 2000 software (version 2.1, Peter Gans, University of Leeds). The formation constants for Cu-Apo7041 system were optimized using the model shown in the first column of Table 29C. The results are shown in the second and third column.
pM^n+ is defined as −log [M(H2O)m]^n+ at physiological conditions, i.e.: pH 7.4, a ligand concentration of 10 μM, and a metal concentration of 1 μM. To calculate pM^n+ for a MLn system, βn and pKa values are needed (βn are the formation constants for M^n++n L^−⇄MLn; pKa are the equilibrium constants for L^−+n H^+⇄LHn^(n-1)+). The pM^n+ is calculated using the HySS software (HYSS© 2000 Protonic Software).

[3] = pKa determination by potentiometric titration; type: physicochemical; settings: 0.1M aqueous NaCl/MeOH, 1/1, v/v
[4] = Distribution coefficient determination, D7.4 (1-octanol / K2HPO4 buffer); type: physicochemical; settings: 1-octanol / K2HPO4 buffer 50 mM pH 7.4
Description: K2HPO4 buffer (50 mM, pH=7.4) and 1-octanol were used as the aqueous phase and the organic phase, respectively. The K2HPO4 buffer and 1-octanol were mixed, and pre-saturated with each other before use.
In a typical experiment, an aqueous solution of Apo6995 (3-hydroxy-2-methyl-1-(2,2,2-trifluoroethyl)pyridin-4(1H)-one) was prepared by weighing out 3 mg of the compound into a 10-mL test-tube. It was then mixed with K2HPO4 buffer (2 mL) and sonicated for 30 minutes with frequent vortexing. The solution was then filtered through HPLC syringe filter (4 mm PVDF syringe filter 0.45 μM) to obtain the aqueous solution.
One mL of this aqueous solution was pipetted out into another 10-mL test-tube and mixed with 1 mL of 1-octanol. The mixture was then vortexed for 1 hour. The solution was centrifuged at 2000 rpm for 10 minutes. A small amount of the lower aqueous layer was carefully pipetted out and analyzed by HPLC to obtain the peak height (HF). The distribution coefficient, D7.4, was calculated using the following equation: D7.4=(HI−HF)/HF.

[5] = Pharmacokinetics following oral administration to rats; type: in vivo, male Sprague Dawley rats; settings: rat, oral 50 mg/kg in 0.5% CMC; for Brain AUC_D_obs / Brain Cmax_D / Plasma AUC_D_obs / Plasma Cmax_D: dose-normalized
Description: Adult male Sprague Dawley rats (275-325 g, Charles River Laboratories, Saint Constant, Quebec) were orally dosed with 50 mg/kg of test compound (Apo7323, Apo7433, Apo7435 or Apo7448) suspended in 0.5% carboxymethylcellulose (CMC) in water. For each test compound, samples were obtained from the plasma and brain of three animals per time point, at 0 (dosed with 0.5% CMC), 0.25, 0.5, 1, 2, 4, 8 and 12 h following administration. The concentration of the compound in rat plasma and brain samples was determined by HPLC-UV. Pharmacokinetic parameters were computed using the PKPlus Module in GastroPlus® ver. 8.0 (Simulations Plus Inc., Lancaster, Calif.). Calculation method: linear trapezoidal with linear interpolation.

[6] = 0.1M aqueous NaCl/MeOH, 1/1, v/v
[7] = 0.1M aqueous NaCl/MeOH, 1/1, v/v, listed as drawing 104
[8] = potentiometric, 0.1 M NaCl, 22° C.
[9] = 0.1M aqueous NaCl (Table 1, Fe3+ chelation, footnote b)

In the case of CN(C)C(c1c(O)c(=O)ccn1C)C(F)(F)F (centres unmarked) [Apo7041, 2-[1-(dimethylamino)-2,2,2-trifluoroethyl]-3-hydroxy-1-methylpyridin-4(1H)-one], the “pKa1 + pKa2” value ([1]; 0.1 M NaCl) is reported as 12.91, the “pKa1 + pKa2 + pKa3” value ([1]; 0.1 M NaCl) is reported as 14.57 and the “pKa1 + pKa2 + pKa3” value [1, 6] is reported as 15.3. For the same compound, the pKa3 [1, 6] was “pKa3 = 2.0”, the pKa1 [1, 7] was “pKa1 = 10.1” and the pKa1 [1, 8] was 9.39. The pKa2 [1, 8] was 3.52, the pKa3 [1, 8] was 1.66 and the “Log β120 (Cu2+)” value [2, 6] was 17.3. The “Log β121 (Cu2+)” value [2, 6] was 23.0, the “Log β122 (Cu2+)” value [2, 6] was 27.9 and the “Logβ111 (Cu2+)” value [2, 6] was “Logβ111 = 14.1”. For the same compound, the “Log β120 (Cu2+)” value [2, 7] was “Logβ120 = 17.3”, the “Log β121 (Cu2+)” value [2, 7] was “Logβ121 = 23.0” and the “Log β122 (Cu2+)” value [2, 7] was “Logβ122 = 27.9”. For the same compound, the “pCu^2+” value [2] was “pCu^2+ = 7.7”, the pKa1 [3] was 10.1 and the “pKa1 + pKa2” value [3] was 13.3. The pKa2 [3] was “pKa2 = 3.2”.
CN(C)Cc1c(O)c(=O)ccn1CC(F)(F)F [Apo7067, 2-[(dimethylamino)methyl]-3-hydroxy-1-(2,2,2-trifluoroethyl)pyridin-4(1H)-one] gave a D7.4 [4] of 2.82 and a logD ([4]; read-out: Log D7.4) of 0.45.
For O=c1ccn(CC(F)(F)F)c(CN2CCOCC2)c1O [Apo7323, 3-hydroxy-2-(morpholinomethyl)-1-(2,2,2-trifluoroethyl)pyridin-4(1H)-one], the CL [5] was 1.99 L/h/kg, the “Brain AUC_D_obs” value [5] was 1.010 kg·µg·h/mL/mg and the “Brain Cmax_D” value [5] was 0.218 kg·µg/mL/mg. For the same compound, the “Plasma AUC_D_obs” value [5] was 1.630 kg·µg·h/mL/mg and the “Plasma Cmax_D” value [5] was 0.400 kg·µg/mL/mg.
For Cc1c(O)c(=O)c(C(N2CCOCC2)C(F)(F)F)cn1C (centres unmarked) [Apo7435, 3-hydroxy-1,2-dimethyl-5-(2,2,2-trifluoro-1-morpholinoethyl)pyridin-4(1H)-one], the CL [5] was 6.61 L/h/kg, the “Brain AUC_D_obs” value [5] was 0.122 kg·µg·h/mL/mg and the “Brain Cmax_D” value [5] was 0.102 kg·µg/mL/mg. The “Plasma AUC_D_obs” value [5] was 0.516 kg·µg·h/mL/mg and the “Plasma Cmax_D” value [5] was 0.312 kg·µg/mL/mg.
For Cc1c(O)c(=O)ccn1C [Deferiprone, 3-hydroxy-1,2-dimethylpyridin-4(1H)-one, reference compound], the pKa1 [1, 9] was “pKa1 = 9.92”, the pKa2 [1, 9] was “pKa2 = 3.55” and the “Log β120 (Cu2+)” value [2, 6] was 20.5. The “Logβ1 (Cu2+)” value [2, 6] was “Logβ1 = 10.8”, the “Logβ2 (Cu2+)” value [2, 6] was “Logβ2 = 20.5” and the “pCu^2+” value [2] was “pCu^2+ = 9.9”. For the same compound, the D7.4 [4] was 0.17, the “Log D7.4” value [4] was −0.77 and the pKa1 [3] was “pKa1 = 10.6”. For the same compound, the pKa2 [3] was “pKa2 = 4.0”.
